According to patent US10716769B2 (GUANGZHOU JTREAT BIOSCI. LTD., priority 2015, dated 2020):
≈ marks a conversion by molar mass, not a printed value.

Tested on: HSV-I, VR733 strain
Test: Inhibition of cytopathic effects of Vero cells caused by herpes virus type I
Assay type: cell-based
Settings: Human alphaherpesvirus 1; Vero cells, CPE 48 hours, Reed-Muench; read-out: IC50 Against HSV-1
Excerpt: Vero cells (kidney cells of African green monkey) are used as viral hosts to test the inhibition degree of the samples to the cytopathic effects of Vero cells caused by herpes virus type I and type II.
Vero cells (kidney cells of African green monkey) are used as viral hosts to test the inhibition degree of the samples to cytopathic effects of the Vero cell caused by herpes virus type I and type II.
1. Virus strains: HSV-I, VR733 strain, and HSV-II, SAV strain, which both are provided by ATCC.
2. Sample treatment: the sample is dissolved in DMSO at an appropriate concentration before use, and diluted with the culture medium 3 times at a total of 8 dilutions for test.
3. Positive control drug: acyclovir (ACV) produced by the Hubei Ke Yi pharmaceutical factory.

Structure (SMILES) | IC50 [µg/mL]
O=C(c1ccccc1)c1ccc(O)c(O)c1O [2,3,4-trihydroxybenzophenone] | 28.7 (≈ 125 µM)
O=C(c1ccc(O)cc1O)c1ccc(O)cc1O [2,4,2′,4′-tetrahydroxybenzophenone] | 28.7 (≈ 117 µM)
O=C(c1ccc(O)c(O)c1O)c1ccc(O)c(O)c1O [2,3,4,2′,3′,4′-hexahydroxybenzophenone] | 28.7 (≈ 103 µM)
